The term IC50 denotes the point on the concentration scale where inhibition reaches its midpoint. As a reminder, the melting point is the temperature, or range, at which the solid turns liquid.

Data set [1] concerns amelanotic melanoma (C-32) cells. In words: WST-1 cell viability assay, C-32. The class given is cell-based, human. To be noted: Homo sapiens, C32, 72 h, WST-1, 72 h; read-out: IC50 ± SD, C-32. As for the experimental part:
(§1) Evaluation of the effect of new betulin derivatives on the viability of the cultured cells was performed using the WST-1(water soluble tetrazolium salt) assay. Betulin 1 and cisplatin were used as the reference compounds.
(§2) The synthesized compounds and references were tested for cytotoxic activity in vitro against human cancer cell lines such as amelanotic melanoma (C-32, ATCC, Rockville, MD, USA), glioblastoma (SNB-19, DSMZ, Braunschweig, Germany), and breast cancer (T47D, and MDA-MB-231, ATCC, Rockville, MD, USA). Cell cultures were maintained using DMEM (Lonza, Basel, Switzerland) supplemented with 10% fetal bovine serum (FBS) (Biological Industries Cromwell, CT, USA) and penicillin (10,000 U/mL) –streptomycin (10 mg/mL) mix (Lonza, Basel, Switzerland).
(§3) Cultures were performed in 96-well plates (Nunc Thermo Fisher Scientific, Waltham, MA, USA). Cells were seeded at 5 × 10^4/well and incubated for 24 h (at 37 °C, 5% CO2, constant humidity). Then, the medium was replaced with a fresh one with the addition of test compounds in the concentration: 25; 12.5; 6.25; 3.12; 1.56; 0.78; 0.39; 0 µg/mL and incubated again for a further 72 h. After this time, the WST-1 test (Roche Molecular Biochemicals, Mannheim, Germany) was performed to assess the metabolic activity of the cells. The principle of the WST-1 colorimetric test is based on the ability of live cells to decompose bright red tetrazole salts of WST-1 to dark red formazan. The reaction is mediated by mitochondrial dehydrogenases and correlates with the number of cells and their metabolic activity. The absorbance was measured at λ = 450 nm with a UVM340 microplate reader (Biogenet, Józefów, Poland). Results were expressed as a mean value of at least three independent experiments performed in triplicate.

Data set [2] deals with glioblastoma (SNB-19) cells. In words: WST-1 cell viability assay, SNB-19. It is filed as cell-based, human. Conditions: Homo sapiens, SNB-19, 72 h, WST-1, 72 h; read-out: IC50 ± SD, SNB-19. The procedure:
as §1, §2, §3
(Formazan colour is commonly taken as a measure of viable cells.)

The test system of the next data set is breast cancer T47D cells. In words: WST-1 cell viability assay, T47D. The class given is cell-based, human. Conditions: Homo sapiens, T47D, 72 h, read-out: IC50 ± SD, T47D. The procedure:
as §1, §2, §3

Data set [3] concerns breast cancer MDA-MB-231 cells. In words: WST-1 cell viability assay, MDA-MB-231. The class given is cell-based, human. Conditions: Homo sapiens, MDA-MB-231, 72 h, read-out: IC50 ± SD, MDA-MB-231. The procedure:
as §1, §2, §3

Data set [4] can be described thus: RP-TLC experimental lipophilicity. To be noted: for RM0 / logPTLC: RP-TLC; for RM0: acetone/Tris buffer pH 7.4, extrapolated to zero acetone; for logPTLC: from RM0 by calibration equation; for -b: slope of regression plot RM = RM0 + bC. The class given is physicochemical. An excerpt: Lipophilicity is an important physicochemical parameter related to the biological activity of compounds. This descriptor, contained in Lipiński’s rule of five, concerns the transport of a compound through the biological membrane system and the formation of a compound–receptor complex. To assess the lipophilic nature of triterpenoids 3–5, 6a–6e, and 7a–7e, the reverse phase chromatography (RP-TLC) method was used (chromatographic procedure by RP-TLC is included in the Supplementary Materials). The theoretical characteristics of the chromatographic parameters (RM0, log PTLC) of the tested derivatives were also performed. […]
Chromatographic procedure by RP-TLC
The experimental lipophilicity parameters was determined using reversed-phase thin-layer chromatography (RP-TLC). The stationary phase was an aluminium backed silica gel RP-18 F254 S plates (Merck, Darmstadt, Germany). Chloroform solutions of reference compounds […]
(acetanilide, 4-bromoacetophenone, benzophenone, anthracene, DDT) and triterpenes 3-5, 6a-6e and 7a-7e were spotted on to the plates in the amount of 2 µL. The chromatograms were performed in triplicate for each compound. The chromatographic chambers were filled of mobile phases consisting of a mixture of acetone (POCh, Gliwice, Poland) and aqueous solution of buffer Tris [(tris-hydroxymethyl)aminomethane] (Fluka, Loughborough, 0.2 M, pH 7.4). The percent acetone volume was varied within the range of 90-60%, in 5% increments. The spots of compounds were visualized by spraying the plates with 10% ethanolic solution of sulphuric acid (VI) and heating for 3 min at 110°C [60]]. The RM values were calculated by the equation RM = log (1/Rf-1) on the basis of average Rf values. The RM0 parameters were obtained by extrapolating on the acetone content to zero, according to the equation RM = RM0 + bC (C – the percentage concentration of acetone in the mobile phase, b – the slope of the regression plot).
The experimental lipophilicity as log PTLC for triterpenes 3-5, 6a-6e and 7a-7e was calculated […]
obtained on the correlation between the literature log Plit values and the experimental RM0 values […]
Table S5. The theoretical values of lipophilicity for tested compounds 3-5, 6a-6e and 7a- […]
Table S6. The correlation matrix for theoretically obtained lipophilicity parameters of compounds 3-5, 6a-6e and 7a-7e. […]

As for `C=C(COP(=O)(OCC)OCC)[C@@H]1CC[C@]2(COC(=O)C#CC)CC[C@]3(C)C(CCC4[C@@]5(C)CC[C@H](OC(=O)C#CC)C(C)(C)C5CC[C@]43C)C12` (stereo partly shown) [Compound 6b, 3,28-Di(2-butynoyl)-30-diethoxyphosphoryloxybetulin], the melting point was in the range of 66 to 70 °C. Also, in data set [1], the IC50 is more than 50 µM. In addition, in data set [2], the IC50 was 4.65 ± 0.51 µM. Besides, in the data set on breast cancer T47D cells, the IC50 is more than 50 µM. Also, in data set [3], the IC50 was found to be 21.2 ± 1.24 µM. In data set [4], the RM0 is 6.884, the logPTLC came out at 8.917 and the “-b” value is on record as 0.078.
`C=C(COP(=O)(OCC)OCC)[C@@H]1CC[C@]2(COC(=O)C#CC3CC3)CC[C@]3(C)C(CCC4[C@@]5(C)CC[C@H](OC(=O)C#CC6CC6)C(C)(C)C5CC[C@]43C)C12` (stereo partly shown) [Compound 6c, 3,28-Di(2-cyclopropylpropynoyl)-30-diethoxyphosphoryloxybetulin]: the melting point was in the range of 67 to 70 °C. Also, the half-inhibitory concentration (IC50) in data set [1] was more than 50 µM. The IC50 in data set [2] was more than 50 µM. Moreover, the half-inhibitory concentration (IC50) with breast cancer T47D cells was more than 50 µM. In addition, the half-inhibitory concentration (IC50) in data set [3] was more than 50 µM. Also, in data set [4], the RM0 is 6.419, the logPTLC stood at 8.330 and the “-b” value is listed as 0.071.
The compound `C=C(COP(=O)(OCC)OCC)[C@@H]1CC[C@]2(COC(=O)C#Cc3ccccc3)CC[C@]3(C)C(CCC4[C@@]5(C)CC[C@H](OC(=O)C#Cc6ccccc6)C(C)(C)C5CC[C@]43C)C12` (stereo partly shown) [Compound 6d, 30-Diethoxyphosphoryloxy-3,28-di(2-phenylpropynoyl)betulin] showed a melting point of 89 to 91 °C. Further, the IC50 in data set [1] was found to be 31.5 ± 1.56 µM. Moreover, in data set [2], the IC50 is 11.2 ± 0.28 µM. For the same compound, the half-maximal inhibitory concentration (IC50) with breast cancer T47D cells is more than 50 µM. Moreover, the IC50 in data set [3] is more than 50 µM. Also, in data set [4], the RM0 was 7.877, the logPTLC is on record as 10.174 and the “-b” value is listed as 0.086.
Regarding `C=C(COP(=O)(OCC)OCC)[C@@H]1CC[C@]2(COC(=O)C#CC3CC3)CC[C@]3(C)C(CCC4[C@@]5(C)CC[C@H](O)C(C)(C)C5CC[C@]43C)C12` (stereo partly shown) [Compound 7c, 28-(2-Cyclopropylpropynoyl)-30-diethoxyphosphoryloxybetulin], the melting point lay in the range of 133 to 134 °C. Moreover, the IC50 in data set [1] worked out at 11.9 ± 0.52 µM. Besides, the concentration for half-maximal inhibition (IC50) in data set [2] was 6.29 ± 0.12 µM. Also, the half-maximal inhibitory concentration (IC50) in the data set on breast cancer T47D cells was more than 50 µM. In addition, the IC50 in data set [3] turned out to be 9.11 ± 0.39 µM. Besides, in data set [4], the RM0 is given as 5.587, the logPTLC is given as 7.277 and the “-b” value was determined as 0.064.
Turning to `C=C(COP(=O)(OCC)OCC)[C@@H]1CC[C@]2(COC(=O)C#Cc3ccccc3)CC[C@]3(C)C(CCC4[C@@]5(C)CC[C@H](O)C(C)(C)C5CC[C@]43C)C12` (stereo partly shown) [Compound 7d, 30-Diethoxyphosphoryloxy-28-(2-phenylpropynoyl)betulin], the melting point was in the range of 131 to 134 °C. For the same compound, in data set [1], the IC50 is 6.9 ± 0.4 µM. Moreover, the 50% inhibitory concentration (IC50) in data set [2] was 4.38 ± 0.04 µM. For the same compound, in the data set on breast cancer T47D cells, the IC50 was determined as 9.47 ± 0.03 µM. The IC50 in data set [3] is more than 50 µM. Further, in data set [4], the RM0 is 6.145, the logPTLC was found to be 7.982 and the “-b” value stood at 0.070.

These data come from PMC7866984, “Molecular Structure, In Vitro Anticancer Study and Molecular Docking of New Phosphate Derivatives of Betulin” (Molecules, 2021).
